These results are taken from patent US20220242870A1, “HETEROCYCLE-FUSED PYRIMIDINE DERIVATIVE AND USE THEREOF” (VORONOI Inc., priority 2019, published 2022).

One assay concerns MCF-7 cells. Kind of assay: Breast cancer cell line proliferation inhibitory activity (CellTiter-Glo 2.0). In kind it is cell-based. The following applies: Homo sapiens, MCF7, 120 hours. The procedure, abridged: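 MCF-7 cells exposed to a 12-point, 3-fold dilution series (final 0.00005–10 μM) for 120 h at 37 °C. Viability read by CellTiter-Glo 2.0 luminescence, expressed as percent of vehicle-treated cells. GI50 (nM) derived from the curves.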

The test system of the next assay is MV4-11 cells. The assay is described as follows: AML cell proliferation inhibitory activity (CellTiter-Glo). In kind it is cell-based. The following applies: Homo sapiens, 72 hours. In short, it runs like this:
(§1)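 RS4;11 and MV4-11 cells in RPMI-1640 with 10% FBS, seeded 24 h before treatment, then exposed 72 h to 12 three-fold dilutions (0.3 nM–50 μM final). Viability by CellTiter-Glo luminescence relative to solvent control; GI50 from triplicate experiments.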
Background: Cellular ATP, detected with luciferase, serves as a proxy for viable cell number.

For another assay, the system named is RS4;11 cells. Described as above. Type of assay: cell-based. As to conditions: Homo sapiens, 72 hours. In short, it runs like this: as §1
Another assay addresses T1, human GST-HPK1 (1-346) (Homo sapiens, UniProt Q92918).
T1 construct: purified human GST-HPK1 (1-346, Signalchem) enzyme; purchased Signalchem
T1 sequence (Q92918 1-346): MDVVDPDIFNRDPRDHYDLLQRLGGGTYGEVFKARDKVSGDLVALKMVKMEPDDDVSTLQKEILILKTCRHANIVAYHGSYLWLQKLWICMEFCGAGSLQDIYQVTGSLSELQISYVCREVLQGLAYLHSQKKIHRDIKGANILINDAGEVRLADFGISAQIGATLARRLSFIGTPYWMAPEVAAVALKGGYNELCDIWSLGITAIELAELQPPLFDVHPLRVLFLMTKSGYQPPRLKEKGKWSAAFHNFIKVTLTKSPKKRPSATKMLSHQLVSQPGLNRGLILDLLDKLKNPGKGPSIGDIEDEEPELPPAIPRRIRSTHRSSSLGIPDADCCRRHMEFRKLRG
Kind of assay: HPK1 enzyme inhibitory ability (ADP-Glo kinase assay). Type of assay: biochemical. As to conditions: human GST-HPK1 3 ng, ATP 3 uM, 25° C. 2 hours. The procedure, abridged:
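Human GST-HPK1(1-346), 3 ng, reacted with 3 uM ATP and specific substrate in 40 mM Tris-HCl pH 7.4, 20 mM MgCl2, 0.5 mg/mL BSA, 50 uM DTT for 2 h at 25° C. ADP-Glo luminescence read; IC50 (nM) relative to untreated solvent control.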
In general terms: In ADP-Glo the light output rises with the ADP produced.

The target in the next assay is T2, human FLT3-ITD enzyme (Homo sapiens, UniProt P36888).
T2 sequence (P36888 1-993): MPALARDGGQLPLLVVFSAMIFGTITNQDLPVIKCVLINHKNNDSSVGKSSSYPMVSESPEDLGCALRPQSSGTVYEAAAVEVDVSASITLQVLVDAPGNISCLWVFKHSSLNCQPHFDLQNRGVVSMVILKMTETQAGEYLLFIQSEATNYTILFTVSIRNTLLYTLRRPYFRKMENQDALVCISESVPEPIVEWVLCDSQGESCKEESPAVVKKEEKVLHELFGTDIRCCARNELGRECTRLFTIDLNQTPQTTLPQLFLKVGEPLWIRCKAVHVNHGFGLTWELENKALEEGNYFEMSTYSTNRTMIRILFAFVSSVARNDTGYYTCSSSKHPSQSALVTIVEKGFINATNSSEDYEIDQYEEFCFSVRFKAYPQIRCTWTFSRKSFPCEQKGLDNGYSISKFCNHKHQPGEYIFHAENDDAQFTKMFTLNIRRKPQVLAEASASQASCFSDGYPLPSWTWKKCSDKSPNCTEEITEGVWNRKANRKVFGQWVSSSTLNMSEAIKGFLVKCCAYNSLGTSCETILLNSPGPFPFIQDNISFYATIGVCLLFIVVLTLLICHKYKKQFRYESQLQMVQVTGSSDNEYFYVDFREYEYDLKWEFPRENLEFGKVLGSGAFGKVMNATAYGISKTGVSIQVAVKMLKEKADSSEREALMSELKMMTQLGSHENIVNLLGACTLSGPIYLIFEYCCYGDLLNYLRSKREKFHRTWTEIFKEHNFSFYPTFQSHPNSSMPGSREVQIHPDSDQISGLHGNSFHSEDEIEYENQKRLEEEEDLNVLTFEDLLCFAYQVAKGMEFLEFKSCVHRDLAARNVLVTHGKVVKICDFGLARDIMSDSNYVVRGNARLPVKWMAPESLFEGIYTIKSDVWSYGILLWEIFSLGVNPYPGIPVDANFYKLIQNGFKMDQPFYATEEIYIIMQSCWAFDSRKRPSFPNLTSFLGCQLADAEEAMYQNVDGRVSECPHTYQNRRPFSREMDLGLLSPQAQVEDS
Kind of assay: FLT3 enzyme inhibitory ability (ADP-Glo kinase assay). Type of assay: biochemical. As to conditions: human FLT3-ITD enzyme 10 ng, ATP 10 μM, 25° C. 1 hour. In short, it runs like this:
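Purified human FLT3-ITD (10 ng) with 10 μM ATP and specific substrate in 40 mM Tris-HCl pH 7.4, 20 mM MgCl2, 0.5 mg/mL BSA, 50 μM DTT, 1 h at 25 °C. ADP formation read by ADP-Glo luminescence; IC50 (nM) versus solvent-treated control.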

The target in another assay is CDK4-cyclinD1 (Homo sapiens, UniProt P11802). The assay is described as follows: CDK4 enzyme inhibitory ability (Reaction Biology). The following applies: measured in Reaction Biology (USA). In kind it is biochemical. More on the design: purchased Reaction Biology (USA), contract assay. As for the experimental part:
(§2) In order to evaluate the CDK4 and CDK6 enzyme inhibitory activities of the example compounds according to the present invention, IC5O (nM) was measured for the CDK4 cyclin D1 and CDK6 cyclin D1 enzymes in Reaction Biology (USA), and the results were shown in Table 3 below.

In the next assay the target is T3, CDK6 cyclin D1 (Homo sapiens, UniProt Q00534).
T3 construct: purchased Reaction Biology (USA), contract assay
T3 sequence (Q00534 whole entry): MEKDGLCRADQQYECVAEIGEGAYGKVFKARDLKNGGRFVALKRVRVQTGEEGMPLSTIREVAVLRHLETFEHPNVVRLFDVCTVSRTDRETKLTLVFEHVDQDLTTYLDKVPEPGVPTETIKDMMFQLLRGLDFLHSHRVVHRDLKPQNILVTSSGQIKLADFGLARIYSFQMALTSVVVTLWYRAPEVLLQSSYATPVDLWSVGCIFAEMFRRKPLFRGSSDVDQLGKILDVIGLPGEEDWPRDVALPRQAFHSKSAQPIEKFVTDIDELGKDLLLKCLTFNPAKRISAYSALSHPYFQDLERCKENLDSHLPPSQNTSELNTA
T3 sequence (P24385 whole entry partner): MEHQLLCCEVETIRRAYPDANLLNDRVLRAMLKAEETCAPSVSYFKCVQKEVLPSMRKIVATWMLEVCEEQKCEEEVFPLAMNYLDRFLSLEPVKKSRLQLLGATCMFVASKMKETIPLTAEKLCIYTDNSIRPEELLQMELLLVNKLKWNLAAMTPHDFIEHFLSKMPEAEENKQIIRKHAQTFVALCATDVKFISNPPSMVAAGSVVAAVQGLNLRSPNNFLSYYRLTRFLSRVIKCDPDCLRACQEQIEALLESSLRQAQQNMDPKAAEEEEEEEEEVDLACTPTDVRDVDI
Kind of assay: CDK6 enzyme inhibitory ability (Reaction Biology). In kind it is biochemical. The following applies: measured in Reaction Biology (USA). As for the experimental part: as §2

Chain of CDK4-cyclinD1 (P11802 whole entry): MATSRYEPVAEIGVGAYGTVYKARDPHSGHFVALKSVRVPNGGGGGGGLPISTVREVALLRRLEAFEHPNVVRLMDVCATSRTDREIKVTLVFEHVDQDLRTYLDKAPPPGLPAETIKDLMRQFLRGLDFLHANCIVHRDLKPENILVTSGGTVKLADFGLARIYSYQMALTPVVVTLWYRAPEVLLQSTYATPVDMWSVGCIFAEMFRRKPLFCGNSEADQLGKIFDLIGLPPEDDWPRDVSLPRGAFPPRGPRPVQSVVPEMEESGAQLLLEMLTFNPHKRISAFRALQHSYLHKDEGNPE
Chain of CDK4-cyclinD1 (P24385 whole entry partner): as the sequence (P24385 whole entry partner) above

With `CN1CCN(c2ccc(Nc3nc(N4N=CCC4c4ccncc4)c4sccc4n3)cc2)CC1` (centres unmarked) [Example 35, N-(4-(4-methylpiperazin-1-yl)phenyl)-4-(5-(pyridin-4-yl)-4,5-dihydro-1H-pyrazol-1-yl)thieno[3,2-d]pyrimidin-2-amine], the GI50 – broadly, the concentration that inhibits growth by half – in the assay with MCF-7 cells was more than 0.5 µM; with MV4-11 cells, 0.25 to 0.5 µM; with RS4;11 cells it was more than 0.5 µM. Moreover, the IC50 on human GST-HPK1 (1-346) and on human FLT3-ITD enzyme was more than 0.5 µM each time.
On to `CCN1CCN(C2CCN(c3ccc(Nc4nc(N5N=CCC5c5ccccc5)c5sccc5n4)cc3)CC2)CC1` (centres unmarked) [Example 37, N-(4-(4-(4-ethylpiperazin-1-yl)piperidin-1-yl)phenyl)-4-(5-phenyl-4,5-dihydro-1H-pyrazol-1-yl)thieno[3,2-d]pyrimidin-2-amine], for which the GI50 in the assay with MCF-7 cells is more than 0.5 µM; with MV4-11 cells, not below 0.25 µM; in the assay with RS4;11 cells, more than 0.5 µM. Also, the figures for the IC50 at human GST-HPK1 (1-346) and against human FLT3-ITD enzyme were more than 0.5 µM and 0.25 to 0.5 µM, respectively.
Regarding `CN(C)C1CCN(c2ccc(Nc3nc(N4N=CCC4c4ccccc4)c4sccc4n3)cc2)CC1` (centres unmarked) [Example 38, N-(4-(4-(dimethylamino)piperidin-1-yl)phenyl)-4-(5-phenyl-4,5-dihydro-1H-pyrazol-1-yl)thieno[3,2-d]pyrimidin-2-amine], the GI50 is more than 0.5 µM in the assay with MCF-7 cells, not below 0.25 µM with MV4-11 cells and more than 0.5 µM in the assay with RS4;11 cells. Besides, the IC50 (as a rule, the concentration that inhibits the measured activity by half) is more than 0.5 µM on human GST-HPK1 (1-346) and not below 0.25 µM against human FLT3-ITD enzyme.
Consider `CN(C)[C@@H]1CCN(c2ccc(Nc3nc(N4N=CCC4c4ccccc4)c4sccc4n3)cc2)C1` (stereo partly drawn) [Example 43, N-(4-((R)-3-(dimethylamino)pyrrolidin-1-yl)phenyl)-4-(5-phenyl-4,5-dihydro-1H-pyrazol-1-yl)thieno[3,2-d]pyrimidin-2-amine], for which the GI50 is more than 0.5 µM in the assay on MCF-7 cells, not below 0.25 µM in the assay with MV4-11 cells and more than 0.5 µM with RS4;11 cells. The IC50 at human GST-HPK1 (1-346) is more than 0.5 µM; against human FLT3-ITD enzyme it was 0.25 to 0.5 µM.
`CN(C)[C@H]1CCN(c2ccc(Nc3nc(N4N=CCC4c4ccccc4)c4sccc4n3)cc2)C1` (stereo partly drawn) [Example 44, N-(4-((S)-3-(dimethylamino)pyrrolidin-1-yl)phenyl)-4-(5-phenyl-4,5-dihydro-1H-pyrazol-1-yl)thieno[3,2-d]pyrimidin-2-amine]: the figures for the GI50 with MCF-7 cells, in the assay with MV4-11 cells and with RS4;11 cells were more than 0.5 µM, not below 0.25 µM and more than 0.5 µM, respectively. Further, the IC50 at human GST-HPK1 (1-346) and on human FLT3-ITD enzyme was more than 0.5 µM in each case.
With `CCN(CC)CCOc1ccc(Nc2nc(N3N=CCC3c3ccccc3)c3sccc3n2)cc1` (centres unmarked) [Example 45, N-(4-(2-(diethylamino)ethoxy)phenyl)-4-(5-phenyl-4,5-dihydro-1H-pyrazol-1-yl)thieno[3,2-d]pyrimidin-2-amine], the results for the GI50 in the assay with MCF-7 cells, in the assay with MV4-11 cells and with RS4;11 cells were more than 0.5 µM, 0.25 to 0.5 µM and more than 0.5 µM, respectively. The results for the IC50 against human GST-HPK1 (1-346) and against human FLT3-ITD enzyme were more than 0.5 µM and 0.25 to 0.5 µM, respectively.
For `CCN(CC)CCCOc1ccc(Nc2nc(N3N=CCC3c3ccccc3)c3sccc3n2)cc1` (centres unmarked) [Example 47, N-(4-(3-(diethylamino)propoxy)phenyl)-4-(5-phenyl-4,5-dihydro-1H-pyrazol-1-yl)thieno[3,2-d]pyrimidin-2-amine], the GI50 is more than 0.5 µM in the assay on MCF-7 cells, not below 0.25 µM in the assay with MV4-11 cells and more than 0.5 µM in the assay with RS4;11 cells. The IC50 was more than 0.5 µM against human GST-HPK1 (1-346) and 0.25 to 0.5 µM on human FLT3-ITD enzyme.
Regarding `CCN(CC)CCCOc1c(C)cc(Nc2nc(N3N=CCC3c3ccccc3)c3sccc3n2)cc1C` (centres unmarked) [Example 48, N-(4-(3-(diethylamino)propoxy)-3,5-dimethylphenyl)-4-(5-phenyl-4,5-dihydro-1H-pyrazol-1-yl)thieno[3,2-d]pyrimidin-2-amine], the GI50 in the assay with MCF-7 cells, in the assay with MV4-11 cells and with RS4;11 cells was more than 0.5 µM each time. In addition, the IC50 at human GST-HPK1 (1-346) and at human FLT3-ITD enzyme was more than 0.5 µM each time.
As to `CCN1CCN(c2ccc(Nc3nc(N4OCC[C@H]4c4ccccc4)c4cc[nH]c4n3)cc2)CC1` [Example 79, (S)-N-(4-(4-ethylpiperazin-1-yl)phenyl)-4-(3-phenylisoxazolidin-2-yl)-7H-pyrrolo[2,3-d]pyrimidin-2-amine], the results for the GI50 in the assay with MCF-7 cells, in the assay with MV4-11 cells and with RS4;11 cells were more than 0.5 µM, not below 0.25 µM and more than 0.5 µM, respectively. Moreover, the IC50 against human GST-HPK1 (1-346) was not below 0.25 µM; against human FLT3-ITD enzyme, 0.25 to 0.5 µM.
Take `CN1CCN(C2CCN(c3ccc(Nc4nc(N5OCC[C@H]5c5ccccc5)c5cc[nH]c5n4)cc3)CC2)CC1` [Example 84, (S)-N-(4-(4-(4-methylpiperazin-1-yl)piperidin-1-yl)phenyl)-4-(3-phenylisoxazolidin-2-yl)-7H-pyrrolo[2,3-d]pyrimidin-2-amine]: the GI50 in the assay with MCF-7 cells was more than 0.5 µM; with MV4-11 cells, not below 0.25 µM; in the assay on RS4;11 cells, not below 0.25 µM. The IC50 at human GST-HPK1 (1-346) and against human FLT3-ITD enzyme was not below 0.25 µM each time.
On to `CN1CCN(c2ccc(Nc3nc(N4OCC[C@H]4c4ccccc4)c4c(Cl)c[nH]c4n3)cc2)CC1` [Example 116, (S)-5-chloro-N-(4-(4-methylpiperazin-1-yl)phenyl)-4-(3-phenylisoxazolidin-2-yl)-7H-pyrrolo[2,3-d]pyrimidin-2-amine], for which the GI50 with MCF-7 cells and with MV4-11 cells was more than 0.5 µM throughout. The IC50 against CDK4-cyclinD1, on CDK6 cyclin D1, against human GST-HPK1 (1-346) and against human FLT3-ITD enzyme was not below 0.25 µM in each case.
On to `CN1CCN(c2ccc(Nc3nc(N4OCC[C@H]4c4ccccc4)c4c(C#N)c[nH]c4n3)cc2)CC1` [Example 118, (S)-2-((4-(4-methylpiperazin-1-yl)phenyl)amino)-4-(3-phenylisoxazolidin-2-yl)-7H-pyrrolo[2,3-d]pyrimidine-5-carbonitrile], for which the GI50 in the assay on MCF-7 cells and in the assay on MV4-11 cells was more than 0.5 µM in each case. The IC50 at CDK4-cyclinD1, on CDK6 cyclin D1, against human GST-HPK1 (1-346) and on human FLT3-ITD enzyme was not below 0.25 µM throughout.
As to `CN1CCN(c2ccc(Nc3nc(N4OCC[C@H]4c4ccccc4)c4c(C(F)(F)F)c[nH]c4n3)cc2)CC1` [Example 123, (S)-N-(4-(4-methylpiperazin-1-yl)phenyl)-4-(3-phenylisoxazolidin-2-yl)-5-(trifluoromethyl)-7H-pyrrolo[2,3-d]pyrimidin-2-amine], the GI50 with MCF-7 cells and in the assay with MV4-11 cells was more than 0.5 µM throughout. The IC50 against CDK4-cyclinD1 is not below 0.25 µM; at CDK6 cyclin D1 it was not below 0.25 µM; against human GST-HPK1 (1-346), more than 0.5 µM; against human FLT3-ITD enzyme it was not below 0.25 µM.
